Results: patent US10653672B2, “Myogenesis promotor, muscle atrophy inhibitor, medical composition and TAZ activator” (National University Corporation Tokyo Medical and Dental …, priority 2014, dated 2020)
“And” between values parts separate entries of the source, which are not always exact repeats. Equal values may be shown once.

Assays:
[1] = system: M-cadherin; experiment: Quantitative real-time PCR, M-cadherin; assay type: cell-based, mouse; conditions: C2C12 cells, 10 μM; for Normarized mRNA abundance, M-cadherin: listed as IBS008738
Procedure: (1) Quantitative real-time PCR was performed with C2C12 cells immediately before the induction of muscle formation (0 h), and after culturing under differentiation condition in a culture medium added with IBS008738 or DMSO at a concentration of 10 μM for 24 hours (24 h) and 72 hours (72 h), respectively. […] The line and error bar indicate the average value and the standard error, **p<0.05, and ns refers to not significant.
Evaluation was also performed under the same condition on M-cadherin, calpain 1 and caveolin 3, which are myofusion markers. As a result, there was no increase in the degree of gene transcription in the case with IBS008738.
The quantitative real-time PCR was performed with SYBER Green (Roche) and ABI7500 Realtime PCR system (Applied Biosystems).

[2] = system: association of TEAD with CTGF; experiment: Chromatin immunoprecipitation, TEAD on CTGF promoter; assay type: cell-based, mouse; conditions: C2C12 cells; 10 μM; differentiation condition 24 hours; protein G sepharose without antibody; listed as IBS008738
Procedure: (§1) (1) Chromatin immunoprecipitation of MyoD, TEAD and Pax3 was performed on C2C12 cells that were cultured under differentiation condition for 24 hours in a culture medium added with IBS008738 or DMSO at a concentration of 10 μM. Myogenin, connective tissue growth factor (CTGF) and MyfS were detected by PCR, respectively. The immunoprecipitation with protein G sepharose was used as a control (Mock ChIP). […] The line and the error bar in the figure indicate the average value and the standard error, *p<0.05, ***p<0.001, ns refers to not significant.
(§2) The Chromatin immunoprecipitation was performed according to the following process. C2C12 cells were cultured to confluence, and then treated with IBS008738 or DMSO at a concentration of 10 μM in a differentiation medium for 24 hours. The cells were crosslinked in 1.42% (v/v) formaldehyde for 15 minutes, and the reaction was quenched by treating with 125 mM glycine for 5 minutes. […] Shearing was analyzed by agarose gel electrophoresis. […] The immunoprecipitated DNA fragments were isolated using Chelex-100 resin and diluted by 1:2.5 for quantitative PCR analysis. Input normalized relative abundance was determined.

[3] = system: binding of Pax3 to Myf5 promoter; experiment: Chromatin immunoprecipitation, Pax3 on Myf5 promoter; assay type: cell-based, mouse; conditions: C2C12 cells; 10 μM; differentiation condition 24 hours; protein G sepharose without antibody; listed as IBS008738
Procedure: as §1, §2

[4] = system: C2C12 cells; experiment: Immunofluorescence of endogenous MyoD and TAZ in C2C12 cells; assay type: cell-based, mouse; conditions: 10 μM
Procedure: Immunostaining of endogenous MyoD and TAZ in C2C12 cells was performed at three stages, i.e., after being cultured in a medium added with IBS008738 or DMSO at a concentration of 10 μM under growth condition for 24 hours, after being cultured under differentiation condition for 24 hours, and after being cultured under differentiation condition for 72 hours (see FIG. 7B). Both MyoD and TAZ existed at each of the three stages. After being cultured under growth condition for 24 hours, MyoD and TAZ were diffusely distributed in the nuclei (top), but formed dots under differentiation condition. After being cultured under differentiation condition for 24 hours, some cells strongly expressed TAZ, whereas other cells expressed more MyoD (middle). After being cultured under differentiation condition for 72 hours, in the single-nuclear cells, TAZ expression decreased while MyoD was still expressed. In the multi-nuclear cells, both TAZ and MyoD were expressed and colocalized in the nuclei (bottom). […] However, at 24 hours under differentiation condition, colocalization of TAZ and MyoD in the single-nuclear cells and generation of cells with two or three nuclei were promoted in the case with IBS008738 as compared with the case with DMSO (middle). […] The immunostaining and the immunofluorescence analysis were performed by the method described in Exp Cell Res 313:1484-1495. The line in the figures is 50 μm.

[5] = system: A431 cells; experiment: Immunoblotting of EMT markers in A431 cells; assay type: cell-based
Procedure: (1) A431 cells, (epidermoid carcinoma), A549 cells (adenocarcinomic human alveolar basal epithelial cell) and HCT116 cells (human colon cancer) were treated with IBS008738 or DMSO, respectively, and evaluated by immunoblotting.
HEK293, A431, A549, HCT116, MCF7 and SW480 cells were cultured in Dulbecco's Modified Eagle Medium (DMEM) containing 10% fetal bovine serum (FBS), 10 mM HEPES-NaOH at pH 7.4, 100 U/ml penicillin and 100 mg/I streptomycin under 5% CO2 at 37° C.

Compound: Cc1ccc(-n2cnc(/N=C/N3CCOCC3)c2C(=O)c2ccccc2)cc1 [exemplary compound 1]
- degree of gene transcription of M-cadherin ([1]; 24 h and 72 h): no increase
- Normarized mRNA abundance, M-cadherin ([1]; differentiation condition 24 h): 1.66 and 1.61 and 1.64
- Normarized mRNA abundance, M-cadherin ([1]; differentiation condition 72 h): 0.82 and 0.87 and 0.80
- Input %, CTGF-p, Mock ChIP [2]: 0.06% and 0.04%
- Input %, Myf5-p, Mock ChIP [3]: 0.14% and 0.13% and 0.16%
- colocalization of TAZ and MyoD in the single-nuclear cells and generation of cells with two or three nuclei ([4]; 24 hours under differentiation condition, compared with DMSO): promoted
- multinuclear cells ([4]; 72 hours under differentiation condition, compared with DMSO): remarkably increased
- MyoD and TAZ immunostaining compared with DMSO ([4]; growth condition 24 hours): no significant difference from the case with DMSO was not observed
- EMT markers (fibronectin, E-cadherin, N-cadherin and vimentin) compared with DMSO [5]: no significant difference
